Columns and labels:
[1] = test system: THP-1-differentiated macrophages; assay: Pro-inflammatory cytokine expression in LPS-challenged THP-1-differentiated macrophages; format: cell-based, human; parameters: key to IL-6, significant reduction in culture supernatant vs LPS treatment / TNF-α, significant reduction in culture supernatant vs LPS treatment / IL-1β, significant reduction in culture supernatant vs LPS treatment: “NS” indicates a non-significant reduction in the indicated cytokine; “+” indicates a p value <0.05 in Tukey post test; “++” indicates a p value <0.01 in Tukey post test; details: for IL-1β, significant reduction in culture supernatant vs LPS treatment / IL-6, significant reduction in culture supernatant vs LPS treatment / TNF-α, significant reduction in culture supernatant vs LPS treatment: 20 min pre-treatment, 24 hrs LPS; for expression of IL-1β and TNF-α / expression of IL-6: at at least one tested dose
Description: Differentiation with PMA causes THP-1 monocyte cells to acquire functional and morphological resemblance to macrophages. LPS interacts with THP-1 differentiated macrophage through the toll-like receptor 4, triggering the inflammatory response and stimulating pro-inflammatory cytokine release and eventually leading to cellular death. Compounds were tested to determine their anti-inflammatory effects on LPS-challenged macrophage cultures. THP-1-differentiated macrophages were treated with test compounds for 20 minutes, followed by 24 hrs of LPS challenge. Culture supernatants were then collected to analyzed for the presence of pro-inflammatory cytokines: […], interleukin 6 (IL-6) and tumor necrosis factor α (TNF-α).
Cytokine quantification in cell culture supernatants was accomplished by HTRF kits to assess levels of IL-1β (Human IL-1β kit, #62HIL1BPEG, Cisbio) and IL-6 (Human IL-6 kit, 62HIL06PET, Cisbio), and by ELISA to determine the levels of TNF-α (Human TNF-α ELISA kit, KHC3011, ThermoFisher).
Data analysis was performed via 1-way ANOVA with Tukey post-test compared to LPS treatment cultures using Prism statistical software (GraphPad). Tabular data indicates significance of reduction in culture supernatants for the indicated analyte at the indicated doses.

CFA-stimulated rats [2] = assay: CFA inflammatory pain model, mechanical allodynia (von Frey test); format: in vivo; parameters: key to Mechanical Allodynia, change in sensitivity compared to CFA alone / Mechanical Allodynia, significant reduction in pain behavior vs CFA alone: NS = no statistically significant change in sensitivity compared to CFA alone; + = statistically significant change in sensitivity compared to CFA alone, p < 0.05; details: for study days on which sensitivity to mechanical stimulation was reduced: PO, post-dose testing, any tested dose; for PWT (paw withdrawal threshold) vs CFA+vehicle: data not shown
Description: (§1) Response to peripheral inflammatory stimulus can be modeled by administering complete Freund's adjuvant (CFA), a suspension of desiccated mycobacterium in paraffin oil and mannide monooleate, by subcutaneous injection into the rat's footpad. The introduction of CFA to peripheral tissues leads to a rapid, sustained, inflammatory reaction in the treated tissue within 24 hours. Subcutaneous administration of CFA in the plantar region of the paw induces inflammatory pain behaviors that persist for at least 8 days. CFA treatment also leads to the accumulation of inflammatory cytokines in paw tissue at the site of injury, which, if unresolved, can lead to formation of fibrotic tissue. The extent of inflammatory response to CFA can be assessed by quantification of inflammatory cytokines in paw skin lysate, and inflammatory pain behaviors by mechanical allodynia (von Frey test) and thermal hyperalgesia (Hargreaves test).
(§2) In one study, Compound 2a was tested for its ability to reduce inflammatory pain behaviors in the CFA inflammation model. On study day 0, […] of CFA was administered subcutaneously in the plantar of the right hind paw. Animals were treated daily with Compound 2a in solution via oral gavage (PO) at doses of 1, 0.1, and 0.025 mg/kg. Treatment began before CFA injection on study day −1 and continued through study day 8.
Mechanical allodynia was measured using the von Frey test. In this test, rats were placed on a wire mesh and a series of filaments designed to deliver probing force ranging from 4 to 26 grams were applied to the mid-plantar surface of the right hind paw. Animals indicated pain response by lifting the probed paw. The minimal force required to elicit the withdrawal response was recorded as the paw withdrawal threshold (PWT). Von Frey testing was performed 1 hour after Compound 2a dosing on study day 1, 3, and 7, and was also tested pre-dosing on day 7. Statistical analysis was performed using a 1-way ANOVA with Tukey post-test. A p-value below 0.05 was considered statistically significant. Control animals stimulated with CFA but treated with only vehicle had high sensitivity to mechanical stimulation compared to normal control animals.
(§3) In another study, Compounds 1a, 5a, and 6a were similarly tested against CFA-induced inflammatory stimulation in the right hind foot for their ability to reduce pain behaviors. This study also included quantification of inflammatory cytokine expression in paw skin lysate. Inflammatory pain stimulation with CFA injection and assessment of mechanical and thermal pain behaviors were performed as described above, with the exception that only post-dose pain behavior testing is reported.
(§4) Intraplantar CFA injection occurred at day 0. Treatment with Compounds 1a, 5a, and 6a occurred at days −2, 1, 3, and 7. At day 8, the rats were terminated and cytokine levels were measured in paw skin and plasma. Tissue from paw bone, joint, and muscle were obtained for H&E staining and analysis. Cytokine levels in test compound-treated animals were compared to CFA-stimulated animals. Analytes included interleukin 4 (IL-4), tumor necrosis factor alpha (TNF-α) and interferon gamma (IFN-γ). Statistical analysis consisted of 1-way ANOVA followed by Dunnett's multiple comparisons post-test. Mechanical allodynia and thermal hyperalgesia were tested 1 hour post-dosing on days 1, 3, and 7. PWT refers to […] paw withdrawal threshold where a higher value corresponds to a higher pain threshold. PWL refers to […] paw withdrawal latency where a higher value corresponds to a higher pain threshold.

CFA-stimulated rats [3] = assay: CFA inflammatory pain model, thermal hyperalgesia (Hargreaves method); format: in vivo; parameters: key to Thermal Hyperalgesia, change in sensitivity compared to CFA alone / Thermal Hyperalgesia, significant reduction in pain behavior vs CFA alone: NS = no statistically significant change in sensitivity compared to CFA alone; + = statistically significant change in sensitivity compared to CFA alone, p < 0.05; details: for study days on which thermal sensitivity was reduced: PO, post-dose testing, any tested dose; for PWL (paw withdrawal latency) vs CFA+vehicle: day 7 at each dose, data not shown
Description: as §1, §2
Thermal hyperalgesia was measured using the Hargreaves method. A temperature ramp was applied to the right hind paw and the paw withdrawal latency (PWL) was recorded as a measure of sensitivity to thermal stimulation. […] Statistical analysis was performed using a 1-way ANOVA with Tukey post-test. A p-value below 0.05 was considered statistically significant.
as §3, §4

[4] = 8 mg/kg PO, Day 1, 1 h post-dose
[5] = 8 mg/kg PO, Day 3, 1 h post-dose
[6] = 8 mg/kg PO, Day 7, 1 h post-dose
[7] = 16 mg/kg PO, Day 1, 1 h post-dose
[8] = 16 mg/kg PO, Day 3, 1 h post-dose
[9] = 16 mg/kg PO, Day 7, 1 h post-dose
[10] = 10 mg/kg PO, Day 1, 1 h post-dose
[11] = 10 mg/kg PO, Day 3, 1 h post-dose
[12] = 10 mg/kg PO, Day 7, 1 h post-dose
[13] = 20 mg/kg PO, Day 1, 1 h post-dose
[14] = 20 mg/kg PO, Day 3, 1 h post-dose
[15] = 20 mg/kg PO, Day 7, 1 h post-dose

Compound | IL-1β, significant reduction in culture supernatant vs LPS treatment ([1]; 0.1 nM) | IL-6, significant reduction in culture supernatant vs LPS treatment ([1]; 0.1 nM) | TNF-α, significant reduction in culture supernatant vs LPS treatment ([1]; 0.1 nM) | IL-1β, significant reduction in culture supernatant vs LPS treatment ([1]; 10 nM) | IL-6, significant reduction in culture supernatant vs LPS treatment ([1]; 10 nM) | TNF-α, significant reduction in culture supernatant vs LPS treatment ([1]; 10 nM) | IL-1β, significant reduction in culture supernatant vs LPS treatment ([1]; 1000 nM) | IL-6, significant reduction in culture supernatant vs LPS treatment ([1]; 1000 nM) | TNF-α, significant reduction in culture supernatant vs LPS treatment ([1]; 1000 nM) | expression of IL-1β and TNF-α [1] | expression of IL-6 [1] | study days on which sensitivity to mechanical stimulation was reduced (CFA-stimulated rats [2]) | PWT (paw withdrawal threshold) vs CFA+vehicle (CFA-stimulated rats [2]; day 1) | study days on which thermal sensitivity was reduced (CFA-stimulated rats [3]) | PWL (paw withdrawal latency) vs CFA+vehicle (CFA-stimulated rats [3]) | further results
CCC(C)CN1CC2N(C(=O)c3ccc(C(F)(F)F)cc3)CCC(=O)N2[C@@H](C)C1=O (some centres unmarked) [Compound 1a] | ++ (“++” indicates a p value <0.01 in Tukey post test) | NS | ++ (“++” indicates a p value <0.01 in Tukey post test) | ++ (“++” indicates a p value <0.01 in Tukey post test) | ++ (“++” indicates a p value <0.01 in Tukey post test) | ++ (“++” indicates a p value <0.01 in Tukey post test) | ++ (“++” indicates a p value <0.01 in Tukey post test) | + (“+” indicates a p value <0.05 in Tukey post test) | ++ (“++” indicates a p value <0.01 in Tukey post test) | significantly reduced | significantly reduced | study days 1, 3, and 7 | statistically significant increase | study days 1, 3, and 7 | statistically significant increase | Mechanical Allodynia, significant reduction in pain behavior vs CFA alone (CFA-stimulated rats [2]; [4]): + (+ = statistically significant change in sensitivity compared to CFA alone, p < 0.05); Mechanical Allodynia, significant reduction in pain behavior vs CFA alone (CFA-stimulated rats [2]; [5]): + (+ = statistically significant change in sensitivity compared to CFA alone, p < 0.05); Mechanical Allodynia, significant reduction in pain behavior vs CFA alone (CFA-stimulated rats [2]; [6]): NS; Mechanical Allodynia, significant reduction in pain behavior vs CFA alone (CFA-stimulated rats [2]; [7]): + (+ = statistically significant change in sensitivity compared to CFA alone, p < 0.05); Mechanical Allodynia, significant reduction in pain behavior vs CFA alone (CFA-stimulated rats [2]; [8]): + (+ = statistically significant change in sensitivity compared to CFA alone, p < 0.05); Mechanical Allodynia, significant reduction in pain behavior vs CFA alone (CFA-stimulated rats [2]; [9]): + (+ = statistically significant change in sensitivity compared to CFA alone, p < 0.05); PWT (paw withdrawal threshold) vs CFA+vehicle (CFA-stimulated rats [2]; day 3, 8 and 16 mg/kg): statistically significant increase; PWT (paw withdrawal threshold) vs CFA+vehicle (CFA-stimulated rats [2]; day 7, 16 mg/kg): statistically significant increase; Thermal Hyperalgesia, significant reduction in pain behavior vs CFA alone (CFA-stimulated rats [3]; [4]): NS; Thermal Hyperalgesia, significant reduction in pain behavior vs CFA alone (CFA-stimulated rats [3]; [5]): NS; Thermal Hyperalgesia, significant reduction in pain behavior vs CFA alone (CFA-stimulated rats [3]; [6]): + (+ = statistically significant change in sensitivity compared to CFA alone, p < 0.05); Thermal Hyperalgesia, significant reduction in pain behavior vs CFA alone (CFA-stimulated rats [3]; [7]): + (+ = statistically significant change in sensitivity compared to CFA alone, p < 0.05); Thermal Hyperalgesia, significant reduction in pain behavior vs CFA alone (CFA-stimulated rats [3]; [8]): + (+ = statistically significant change in sensitivity compared to CFA alone, p < 0.05); Thermal Hyperalgesia, significant reduction in pain behavior vs CFA alone (CFA-stimulated rats [3]; [9]): + (+ = statistically significant change in sensitivity compared to CFA alone, p < 0.05)
CCC(C)CN1CC2N(Cc3ccc(C(F)(F)F)cc3)CCC(=O)N2[C@@H](C)C1=O (some centres unmarked) [Compound 5a] | ++ (“++” indicates a p value <0.01 in Tukey post test) | NS | NS | ++ (“++” indicates a p value <0.01 in Tukey post test) | + (“+” indicates a p value <0.05 in Tukey post test) | NS | ++ (“++” indicates a p value <0.01 in Tukey post test) | ++ (“++” indicates a p value <0.01 in Tukey post test) | + (“+” indicates a p value <0.05 in Tukey post test) | significantly reduced | significantly reduced | study day 1 | statistically significant increase | study days 1 and 7 | statistically significant increase | Mechanical Allodynia, significant reduction in pain behavior vs CFA alone (CFA-stimulated rats [2]; [10]): + (+ = statistically significant change in sensitivity compared to CFA alone, p < 0.05); Mechanical Allodynia, significant reduction in pain behavior vs CFA alone (CFA-stimulated rats [2]; [11]): NS; Mechanical Allodynia, significant reduction in pain behavior vs CFA alone (CFA-stimulated rats [2]; [12]): NS; Mechanical Allodynia, significant reduction in pain behavior vs CFA alone (CFA-stimulated rats [2]; [13]): + (+ = statistically significant change in sensitivity compared to CFA alone, p < 0.05); Mechanical Allodynia, significant reduction in pain behavior vs CFA alone (CFA-stimulated rats [2]; [14]): NS; Mechanical Allodynia, significant reduction in pain behavior vs CFA alone (CFA-stimulated rats [2]; [15]): NS; Thermal Hyperalgesia, significant reduction in pain behavior vs CFA alone (CFA-stimulated rats [3]; [10]): + (+ = statistically significant change in sensitivity compared to CFA alone, p < 0.05); Thermal Hyperalgesia, significant reduction in pain behavior vs CFA alone (CFA-stimulated rats [3]; [11]): NS; Thermal Hyperalgesia, significant reduction in pain behavior vs CFA alone (CFA-stimulated rats [3]; [12]): + (+ = statistically significant change in sensitivity compared to CFA alone, p < 0.05); Thermal Hyperalgesia, significant reduction in pain behavior vs CFA alone (CFA-stimulated rats [3]; [13]): NS; Thermal Hyperalgesia, significant reduction in pain behavior vs CFA alone (CFA-stimulated rats [3]; [14]): NS; Thermal Hyperalgesia, significant reduction in pain behavior vs CFA alone (CFA-stimulated rats [3]; [15]): + (+ = statistically significant change in sensitivity compared to CFA alone, p < 0.05)
